What was measured:
PLC/PRF/5 = assay: TH2870 sensitivity in liver cancer cells; format: cell-based, human; details: AKR1C3 expression +++
[1] = Example 4-I body weight change, H460 xenograft study; format: in vivo, female nude mice (nu/nu); details: iv, Q7D × 3
Description: Cells were mixed with Matrigel (50% with exception for 30% in the H460) and 0.2 ml per mouse were subcutaneously implanted to the flank area of the animals. When tumor size reached 100-150 250 mm3, mice were randomized into experimental or vehicle groups with 10 mice/group and treatment was started (Day 1). The tested compounds were formulated in 5% DMSO in D5W. The regimens employed in the examples include IP, QD×5/wk (5 days on, 2 days off) as one cycle, for a total of 2 cycles; IP, once; IP, weekly for total 3 weeks; and IV, weekly for 3 weeks. Tumor growth and body weight were measured twice a week. Tumor volume was calculated as (length×width2)/2. Drug efficacy was assessed as Tumor Growth Inhibition (TGI) and Tumor Growth Delay (TGD). TGI was defined as (1−ΔT/ΔC)×100, where ΔT/ΔC presented the ratio of the change in mean (or median, if variation within the group was relatively large) tumor volume of the treated group and of the control group. TGD was calculated as the extra days for the treated tumor to reach 500 mm3 or 1000 mm3 as compared to the control group. Animals were culled when individual tumor size reached over 2000 mm3 or mean tumor volume exceeded 1000 mm3 in the group. Data are expressed as the mean±SEM. One-way analysis of variance with Dunnett post comparison test (GraphPad Prism 4) or two-tailed student's t-test were used for analysis. A P level <0.05 was considered statistically significant.
The compound TH-2870 was tested in a H460 model. The compound was dosed follows. 1.5, 5 or 15 mg/kg, IV, weekly for 3 weeks at 250 mm^3 tumors on day 1 (10 animals per group average tumor volume), comparing with docetaxel. The antitumor effects and the safety of administration are graphically illustrated below.

SNU-449 = assay: TH2870 sensitivity in liver cancer cells; format: cell-based, human; details: AKR1C3 expression ++++
SK-HEP-1 = assay: TH2870 sensitivity in liver cancer cells; format: cell-based, human
JHH-7 = assay: TH2870 sensitivity in liver cancer cells; format: cell-based, human
H460 cells = assay: Proliferation assay in H460 cells (2 hr exposure, AlamarBlue); format: cell-based, human; details: Homo sapiens, NCI-H460, 2 hrs exposure, wash, 70 hrs growth, read-out: IC 50 in proliferation assay in H460 cells
How it was run: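 H460 cells seeded at 4×10^3/well, grown 24 h, then exposed to compound for 2 h at 37 °C. Drug was washed off and cells were regrown 70 h in fresh medium. Viable cells were read by AlamarBlue, and IC50 was taken as the concentration giving 50% growth inhibition.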

[2] = Example 4-C body weight change, A375 xenograft study; format: in vivo, female nude mice (nu/nu); details: 20 mpk, qd × 5 × 2, ip
How it was run: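 Cells in 50% Matrigel were implanted subcutaneously in the flank, and mice (10/group) were randomized at 100-150 mm3. Compounds in 5% DMSO/D5W were dosed IP QD×5/wk ×2 cycles, IP once, IP weekly ×3 wk, or IV weekly ×3 wk. Body weight and tumour volume were measured twice weekly; TGI = (1−ΔT/ΔC)×100.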

SNU-475 = assay: TH2870 sensitivity in liver cancer cells; format: cell-based, human; details: AKR1C3 expression ++++
[3] = Pharmacokinetics of TH2870 in CD-1 mice, single IV bolus and single IP dose; details: mouse, in vivo
Description: The pharmacokinetics of TH2870 in CD-1 mice following a single intravenous bolus dose (5 mg/kg) and a single intraperitoneal dose (10 mg/kg) were determined.

SNU-423 = assay: TH2870 sensitivity in liver cancer cells; format: cell-based, human; details: AKR1C3 expression +
SNU-387 = assay: TH2870 sensitivity in liver cancer cells; format: cell-based, human; details: AKR1C3 expression ++++
LIXC-066 = assay: TH2870 sensitivity in liver cancer cells; format: cell-based, human; details: AKR1C3 expression ++
Hep 3B2.1-7 = assay: TH2870 sensitivity in liver cancer cells; format: cell-based, human; details: AKR1C3 expression /
HCCC-9810 = assay: TH2870 sensitivity in liver cancer cells; format: cell-based, human; details: AKR1C3 expression ++++
DU145 = assay: TH2870 sensitivity in prostate cancer cell lines; format: cell-based; details: Homo sapiens, DU-145
LIXC-006 = assay: TH2870 sensitivity in liver cancer cells; format: cell-based, human; details: AKR1C3 expression +++
SNU-182 = assay: TH2870 sensitivity in liver cancer cells; format: cell-based, human; details: AKR1C3 expression /
LNCap = assay: TH2870 sensitivity in prostate cancer cell lines; format: cell-based; details: Homo sapiens
LIXC-086 = assay: TH2870 sensitivity in liver cancer cells; format: cell-based, human; details: AKR1C3 expression ++++
[4] = Homo sapiens, read-out: RelIC50

CC(OP(=O)(N1CC1)N1CC1)c1ccc([N+](=O)[O-])c(Oc2cccc(C(=O)N(C)C)c2)c1 (stereo not shown) [Compound 2870]
Max Inhibition % (PLC/PRF/5): 53.3%
Max. BW loss % ([1]; 1.5 mg/kg): 7.6%
Max. BW loss % ([1]; 5 mg/kg): 7.6%
Max. BW loss % ([1]; 15 mg/kg): 5.8%
Max Inhibition % (SNU-449): 99.6%
IC50 (SNU-449; [4]): 0.04 µM
Max Inhibition % (SK-HEP-1; AKR1C3 expression /): 44.3%
IC50 (SK-HEP-1; Homo sapiens, SK-HEP1, AKR1C3 expression /, read-out: RelIC50): > 1 µM
Max Inhibition % (JHH-7; AKR1C3 expression +++): 69.8%
IC50 (JHH-7; Homo sapiens, JHH7, AKR1C3 expression +++, read-out: RelIC50): 0.107 µM
IC50 (H460 cells): 0.0004 µM
Max. BW loss % [2]: 0%
Max Inhibition % (SNU-475): 100.4%
IC50 (SNU-475; [4]): 0.008 µM
AUC ([3]; IP 10 mg/kg): 0.725 µg·h/mL
Cmax ([3]; IP 10 mg/kg): 4.02 µg/mL
Tmax ([3]; IP 10 mg/kg): 5 min
half-life ([3]; IP 10 mg/kg): 9 min
AUC ([3]; IV bolus 5 mg/kg): 0.963 µg·h/mL
Cmax ([3]; IV bolus 5 mg/kg): 6.79 µg/mL
Tmax ([3]; IV bolus 5 mg/kg): 2 min
clearance ([3]; IV bolus 5 mg/kg): 5.19 L/h/kg
half-life ([3]; IV bolus 5 mg/kg): 6.56 min
Vd ([3]; IV bolus 5 mg/kg, read-out: Vss): 0.668 L/kg
Max Inhibition % (SNU-423): 43.3%
IC50 (SNU-423; [4]): > 1 µM
Max Inhibition % (SNU-387): 102.8%
Max Inhibition % (LIXC-066): 75.4%
IC50 (LIXC-066; [4]): 0.0941 µM
Max Inhibition % (Hep 3B2.1-7): 8.1%
IC50 (Hep 3B2.1-7; [4]): > 1 µM
Max Inhibition % (HCCC-9810): 95.4%
IC50 (DU145): 0.0429 µM
Max Inhibition % (LIXC-006): 71.7%
IC50 (LIXC-006; [4]): 0.116 µM
Max Inhibition % (SNU-182): 19.4%
IC50 (SNU-182; [4]): > 1 µM
IC50 (LNCap): 0.162 µM
Max Inhibition % (LIXC-086): 92.8%
IC50 (LIXC-086; [4]): 0.041 µM

From patent publication US10766914B2, “DNA alkylating agents” (OBI PHARMA, INC., priority 2015, dated 2020)
